Publication PMC4798913 (ACS chemical biology, 2015)

Experiments:
[1] = biological target: PRMT3 (Homo sapiens, UniProt O60678); assay: PRMT biochemical scintillation proximity assay; settings: for IC50: read-out: IC50 PRMT3, substrate at Km, triplicate, Mean ± SD, NI: no inhibition
[2] = biological target: PRMT5 (Homo sapiens, UniProt O14744); assay: PRMT biochemical scintillation proximity assay; settings: for inhibition of type II PRMT (PRMT5): concentration not given
[3] = biological target: T1, PRMT9 (Homo sapiens, UniProt Q6P2P2); assay: PRMT biochemical scintillation proximity assay; settings: for inhibition of type II PRMT (PRMT9): concentration not given
T1 sequence (Q6P2P2 1-845): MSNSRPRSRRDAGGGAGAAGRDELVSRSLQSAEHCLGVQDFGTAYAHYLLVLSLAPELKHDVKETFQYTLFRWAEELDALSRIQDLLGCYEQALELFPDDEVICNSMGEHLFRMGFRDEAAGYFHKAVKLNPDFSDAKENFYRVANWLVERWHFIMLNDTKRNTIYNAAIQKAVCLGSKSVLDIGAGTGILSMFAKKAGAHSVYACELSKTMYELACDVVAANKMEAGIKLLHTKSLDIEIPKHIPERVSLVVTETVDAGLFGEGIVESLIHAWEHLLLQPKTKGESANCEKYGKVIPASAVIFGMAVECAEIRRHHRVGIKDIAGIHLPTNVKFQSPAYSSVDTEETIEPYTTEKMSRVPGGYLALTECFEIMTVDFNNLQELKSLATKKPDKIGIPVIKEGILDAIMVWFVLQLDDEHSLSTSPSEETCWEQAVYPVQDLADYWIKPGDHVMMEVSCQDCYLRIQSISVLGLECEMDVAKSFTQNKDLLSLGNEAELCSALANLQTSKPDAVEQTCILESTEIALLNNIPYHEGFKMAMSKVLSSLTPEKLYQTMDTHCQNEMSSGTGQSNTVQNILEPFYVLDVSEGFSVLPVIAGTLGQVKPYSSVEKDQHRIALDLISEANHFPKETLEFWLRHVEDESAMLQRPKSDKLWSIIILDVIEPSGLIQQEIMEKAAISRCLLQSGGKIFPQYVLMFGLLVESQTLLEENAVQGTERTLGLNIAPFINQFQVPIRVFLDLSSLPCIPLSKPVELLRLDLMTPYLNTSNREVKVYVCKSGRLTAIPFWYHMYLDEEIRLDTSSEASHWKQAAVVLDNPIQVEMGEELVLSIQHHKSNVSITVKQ

[4] = biological target: T2, PRMT7 (Homo sapiens, UniProt Q9NVM4); assay: PRMT biochemical scintillation proximity assay; settings: for inhibition of type III PRMT (PRMT7): concentration not given
T2 sequence (Q9NVM4 1-692): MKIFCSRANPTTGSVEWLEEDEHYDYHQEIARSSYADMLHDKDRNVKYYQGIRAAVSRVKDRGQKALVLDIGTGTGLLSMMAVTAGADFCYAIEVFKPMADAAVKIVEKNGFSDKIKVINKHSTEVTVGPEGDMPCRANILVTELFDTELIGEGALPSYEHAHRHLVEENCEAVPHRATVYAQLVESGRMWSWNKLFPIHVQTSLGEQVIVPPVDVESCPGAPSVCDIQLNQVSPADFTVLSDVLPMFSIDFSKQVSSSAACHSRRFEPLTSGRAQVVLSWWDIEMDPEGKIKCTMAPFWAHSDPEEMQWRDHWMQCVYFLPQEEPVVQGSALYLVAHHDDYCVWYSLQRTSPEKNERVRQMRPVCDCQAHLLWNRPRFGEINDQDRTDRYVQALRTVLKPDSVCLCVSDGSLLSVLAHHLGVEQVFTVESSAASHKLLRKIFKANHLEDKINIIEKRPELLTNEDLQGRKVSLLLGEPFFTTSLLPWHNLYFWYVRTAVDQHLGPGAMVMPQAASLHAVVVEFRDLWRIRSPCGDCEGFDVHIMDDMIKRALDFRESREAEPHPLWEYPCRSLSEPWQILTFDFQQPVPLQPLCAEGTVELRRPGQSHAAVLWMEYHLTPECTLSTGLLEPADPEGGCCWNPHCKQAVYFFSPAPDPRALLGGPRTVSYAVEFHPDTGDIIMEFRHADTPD

[5] = test system: 25 PKMTs and DNMTs, and 3 histone lysine demethylases; assay: Selectivity panel of methyltransferases and demethylases; type: biochemical; settings: up to 10 μM (tested at 1 μM and 10 μM)
[6] = test system: MCF7 cells; assay: Global arginine methylation Western blot; type: cell-based; settings: two days (48 h)
[7] = test system: eight different cell lines; assay: Cell growth assay; type: cell-based; settings: 96 h treatment
[8] = test system: HEK293 cells; assay: Cell growth assay; type: cell-based; settings: 1 μM, 4-day and long-term (10 days) treatment
[9] = test system: 9 methyllysine or methylarginine reader proteins; assay: DSF or DSLS binding to reader proteins
[10] = test system: HEK293 cells; assay: Global arginine methylation Western blot; settings: two days
[11] = biological target: PRMT6 (Homo sapiens, UniProt Q96LA8); settings: 100 μM SAM; PRMT6 alone Tm = 52 °C
[12] = biological target: T3, PRMT1 (Homo sapiens, UniProt Q99873); assay: PRMT biochemical scintillation proximity assay; settings: read-out: IC50 PRMT1; substrate at Km; triplicate, Mean ± SD; NI: no inhibition
[13] = biological target: T4, PRMT4 (Homo sapiens, UniProt Q86X55); assay: PRMT biochemical scintillation proximity assay; settings: read-out: IC50 PRMT4; substrate at Km; triplicate, Mean ± SD; NI: no inhibition
T4 sequence (Q86X55 1-608): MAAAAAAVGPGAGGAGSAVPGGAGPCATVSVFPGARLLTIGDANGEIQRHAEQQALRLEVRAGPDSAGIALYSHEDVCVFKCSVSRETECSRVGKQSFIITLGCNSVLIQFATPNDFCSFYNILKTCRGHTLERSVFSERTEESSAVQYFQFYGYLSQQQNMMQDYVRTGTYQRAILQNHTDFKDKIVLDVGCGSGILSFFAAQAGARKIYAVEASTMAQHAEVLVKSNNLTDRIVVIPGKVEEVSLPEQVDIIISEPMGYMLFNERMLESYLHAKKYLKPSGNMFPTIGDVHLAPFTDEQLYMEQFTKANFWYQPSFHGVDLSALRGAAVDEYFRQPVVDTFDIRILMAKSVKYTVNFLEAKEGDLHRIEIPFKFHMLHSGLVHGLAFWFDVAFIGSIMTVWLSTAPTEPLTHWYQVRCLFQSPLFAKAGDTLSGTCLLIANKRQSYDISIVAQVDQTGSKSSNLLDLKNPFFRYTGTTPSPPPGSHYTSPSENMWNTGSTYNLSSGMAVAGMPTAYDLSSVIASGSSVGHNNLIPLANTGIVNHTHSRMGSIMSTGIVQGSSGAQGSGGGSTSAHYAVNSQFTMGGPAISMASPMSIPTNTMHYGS

[14] = biological target: T3, PRMT1; assay: Cellular PRMT1 assay; type: cell-based; settings: MCF7 cells, 48 h

T3 sequence (Q99873 whole entry): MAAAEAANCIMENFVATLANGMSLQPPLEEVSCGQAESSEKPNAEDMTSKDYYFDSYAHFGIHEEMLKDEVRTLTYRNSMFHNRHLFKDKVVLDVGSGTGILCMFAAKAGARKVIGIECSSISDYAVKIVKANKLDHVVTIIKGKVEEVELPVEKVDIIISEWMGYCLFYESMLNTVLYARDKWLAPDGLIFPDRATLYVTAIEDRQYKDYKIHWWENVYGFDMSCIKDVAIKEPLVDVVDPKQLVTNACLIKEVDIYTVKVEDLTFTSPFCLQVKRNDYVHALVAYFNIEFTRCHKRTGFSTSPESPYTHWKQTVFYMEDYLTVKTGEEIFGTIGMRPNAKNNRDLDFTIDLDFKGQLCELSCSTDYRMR
PRMT5, sequence (O14744 whole entry): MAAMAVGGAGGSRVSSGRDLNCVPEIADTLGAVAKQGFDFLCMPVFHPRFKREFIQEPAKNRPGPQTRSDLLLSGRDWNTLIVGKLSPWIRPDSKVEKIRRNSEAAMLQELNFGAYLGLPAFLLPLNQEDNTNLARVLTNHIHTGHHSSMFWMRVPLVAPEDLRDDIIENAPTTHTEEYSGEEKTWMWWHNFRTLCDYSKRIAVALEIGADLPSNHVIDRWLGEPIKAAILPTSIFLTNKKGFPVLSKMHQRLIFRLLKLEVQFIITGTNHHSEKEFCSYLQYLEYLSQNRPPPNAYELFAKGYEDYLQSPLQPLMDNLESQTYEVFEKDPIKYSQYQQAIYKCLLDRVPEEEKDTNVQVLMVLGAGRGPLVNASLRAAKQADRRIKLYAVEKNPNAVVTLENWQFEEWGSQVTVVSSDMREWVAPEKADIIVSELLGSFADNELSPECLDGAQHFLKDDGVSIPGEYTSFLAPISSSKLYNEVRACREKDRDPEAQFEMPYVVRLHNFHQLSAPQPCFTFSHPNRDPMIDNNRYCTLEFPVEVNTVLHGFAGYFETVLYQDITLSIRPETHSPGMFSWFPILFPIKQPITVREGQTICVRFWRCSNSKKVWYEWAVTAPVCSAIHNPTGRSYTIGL
PRMT5, sequence (Q9BQA1 whole entry partner): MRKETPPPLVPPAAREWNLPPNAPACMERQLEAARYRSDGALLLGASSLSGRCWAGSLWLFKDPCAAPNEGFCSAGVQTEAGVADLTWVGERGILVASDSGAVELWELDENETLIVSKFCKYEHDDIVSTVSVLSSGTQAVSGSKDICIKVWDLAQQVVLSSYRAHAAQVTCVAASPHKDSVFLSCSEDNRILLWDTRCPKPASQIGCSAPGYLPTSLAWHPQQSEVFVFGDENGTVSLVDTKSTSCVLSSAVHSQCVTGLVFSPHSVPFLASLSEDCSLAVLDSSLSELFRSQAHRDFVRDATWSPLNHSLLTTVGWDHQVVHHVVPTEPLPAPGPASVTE
PRMT3, sequence (O60678 whole entry): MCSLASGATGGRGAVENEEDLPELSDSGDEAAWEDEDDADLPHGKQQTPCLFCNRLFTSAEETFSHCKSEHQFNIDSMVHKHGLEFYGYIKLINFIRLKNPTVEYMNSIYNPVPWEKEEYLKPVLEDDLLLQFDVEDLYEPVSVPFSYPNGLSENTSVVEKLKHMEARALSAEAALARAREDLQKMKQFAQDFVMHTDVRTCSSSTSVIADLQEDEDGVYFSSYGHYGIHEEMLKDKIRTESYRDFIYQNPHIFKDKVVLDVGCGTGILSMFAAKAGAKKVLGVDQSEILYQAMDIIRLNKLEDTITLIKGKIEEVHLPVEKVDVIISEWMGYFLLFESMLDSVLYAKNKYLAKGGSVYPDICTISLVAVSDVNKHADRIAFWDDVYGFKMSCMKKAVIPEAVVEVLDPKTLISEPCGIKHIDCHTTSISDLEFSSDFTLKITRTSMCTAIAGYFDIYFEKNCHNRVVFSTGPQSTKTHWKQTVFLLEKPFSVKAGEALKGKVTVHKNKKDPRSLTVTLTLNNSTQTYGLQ
PRMT6, sequence (Q96LA8 whole entry): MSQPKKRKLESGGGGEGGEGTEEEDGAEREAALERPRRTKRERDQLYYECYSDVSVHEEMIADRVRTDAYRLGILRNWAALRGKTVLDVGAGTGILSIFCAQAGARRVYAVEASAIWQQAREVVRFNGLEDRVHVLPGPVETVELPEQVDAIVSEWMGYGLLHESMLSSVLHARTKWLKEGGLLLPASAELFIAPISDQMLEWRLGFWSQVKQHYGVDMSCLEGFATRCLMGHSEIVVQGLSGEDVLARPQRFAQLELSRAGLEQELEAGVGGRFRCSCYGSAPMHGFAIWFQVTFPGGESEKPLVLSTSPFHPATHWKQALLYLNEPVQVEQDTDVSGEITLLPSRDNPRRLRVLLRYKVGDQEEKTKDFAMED

IC50 [12] [µM] | IC50 [1] [µM] | IC50 [13] [µM] | effect on cellular levels of H4R3me2a [14] | SMILES | global levels of arginine asymmetric dimethylation (Rme2a) [6] | global levels of arginine monomethylation (Rme1) [6] | global levels of arginine symmetric dimethylation (Rme2s) [6] | also measured
– | – | – | – | CC(C)Oc1ccc(-c2c[nH]cc2CN(C)CCN)cc1 [MS023] | significant decrease | increase | increase | pattern of inhibition (MOA) for PRMT3 ([1]; IC50 at different SAM and peptide concentrations): noncompetitive with the peptide substrate but uncompetitive with the cofactor SAM; inhibition of PRMT5 (type II) ([2]; concentrations up to 10 μM): did not inhibit; inhibition of PRMT9 (type II) ([3]; concentrations up to 10 μM): did not inhibit; inhibition of PRMT7 (type III) ([4]; concentrations up to 10 μM): did not inhibit; inhibition of 25 PKMTs and DNMTs and 3 histone lysine demethylases [5]: did not inhibit; effect on cell growth ([7]; concentrations up to 1 μM, all lines except HEK293): did not significantly impact cell growth; effect on cell growth ([7]; higher concentrations (e.g., 10 μM, 50 μM)): decreased cell growth in most of tested cell lines; effect on cell growth [8]: greatly affecting cell growth; binding to 9 methyllysine or methylarginine reader proteins [9]: did not show binding; global levels of arginine asymmetric dimethylation (Rme2a) [10]: significant decrease; global levels of arginine monomethylation (Rme1) [10]: increase; global levels of arginine symmetric dimethylation (Rme2s) [10]: increase
– | – | – | – | CN(CCN)Cc1c[nH]cc1-c1cccc(C(F)(F)F)c1 [Compound 2] | – | – | – | inhibition of type II PRMT (PRMT5) [2]: did not inhibit; inhibition of type II PRMT (PRMT9) [3]: did not inhibit; inhibition of type III PRMT (PRMT7) [4]: did not inhibit
– | – | – | – | C[S+](CC[C@H](N)C(=O)O)C[C@H]1O[C@@H](n2cnc3c(N)ncnc32)[C@H](O)[C@@H]1O (stereo partly drawn) [SAM, S-5′-adenosyl-L-methionine] | – | – | – | ΔTm PRMT6 (DSF) [11]: 1.6 °C
> 10 | > 10 | > 10 | did not decrease | CC(C)Oc1ccc(-c2c[nH]cc2CN(C)CCO)cc1 [MS094] | did not change | did not change | did not change | –
> 10 | > 10 | > 10 | did not decrease | CC(C)Oc1ccc(-c2c[nH]cc2CN(C)CC(N)=O)cc1 [Compound 5] | did not change | did not change | did not change | –
– | – | – | – | CN(CCN)Cc1n[nH]nc1-c1cccc(C(F)(F)F)c1 [Compound 1] | – | – | – | inhibition of type II PRMT (PRMT5) [2]: did not inhibit; inhibition of type II PRMT (PRMT9) [3]: did not inhibit; inhibition of type III PRMT (PRMT7) [4]: did not inhibit
> 10 | > 10 | > 10 | did not decrease | CC(C)Oc1ccc(-c2c[nH]cc2C(=O)N(C)CCN)cc1 [Compound 6] | did not change | did not change | did not change | –
